This passage reports IC50 results from PMC5813235, “Selective inhibition of TRPM2 channel by two novel synthesized ADPR analogues” (Chemical Biology & Drug Design, 2017).

A value given as a limit tells only on which side of the number the result lay.

One test deals with T1, human TRPM2 (Homo sapiens, UniProt O94759).
T1 construct: whole-cell patch clamp
T1 sequence (O94759 whole entry): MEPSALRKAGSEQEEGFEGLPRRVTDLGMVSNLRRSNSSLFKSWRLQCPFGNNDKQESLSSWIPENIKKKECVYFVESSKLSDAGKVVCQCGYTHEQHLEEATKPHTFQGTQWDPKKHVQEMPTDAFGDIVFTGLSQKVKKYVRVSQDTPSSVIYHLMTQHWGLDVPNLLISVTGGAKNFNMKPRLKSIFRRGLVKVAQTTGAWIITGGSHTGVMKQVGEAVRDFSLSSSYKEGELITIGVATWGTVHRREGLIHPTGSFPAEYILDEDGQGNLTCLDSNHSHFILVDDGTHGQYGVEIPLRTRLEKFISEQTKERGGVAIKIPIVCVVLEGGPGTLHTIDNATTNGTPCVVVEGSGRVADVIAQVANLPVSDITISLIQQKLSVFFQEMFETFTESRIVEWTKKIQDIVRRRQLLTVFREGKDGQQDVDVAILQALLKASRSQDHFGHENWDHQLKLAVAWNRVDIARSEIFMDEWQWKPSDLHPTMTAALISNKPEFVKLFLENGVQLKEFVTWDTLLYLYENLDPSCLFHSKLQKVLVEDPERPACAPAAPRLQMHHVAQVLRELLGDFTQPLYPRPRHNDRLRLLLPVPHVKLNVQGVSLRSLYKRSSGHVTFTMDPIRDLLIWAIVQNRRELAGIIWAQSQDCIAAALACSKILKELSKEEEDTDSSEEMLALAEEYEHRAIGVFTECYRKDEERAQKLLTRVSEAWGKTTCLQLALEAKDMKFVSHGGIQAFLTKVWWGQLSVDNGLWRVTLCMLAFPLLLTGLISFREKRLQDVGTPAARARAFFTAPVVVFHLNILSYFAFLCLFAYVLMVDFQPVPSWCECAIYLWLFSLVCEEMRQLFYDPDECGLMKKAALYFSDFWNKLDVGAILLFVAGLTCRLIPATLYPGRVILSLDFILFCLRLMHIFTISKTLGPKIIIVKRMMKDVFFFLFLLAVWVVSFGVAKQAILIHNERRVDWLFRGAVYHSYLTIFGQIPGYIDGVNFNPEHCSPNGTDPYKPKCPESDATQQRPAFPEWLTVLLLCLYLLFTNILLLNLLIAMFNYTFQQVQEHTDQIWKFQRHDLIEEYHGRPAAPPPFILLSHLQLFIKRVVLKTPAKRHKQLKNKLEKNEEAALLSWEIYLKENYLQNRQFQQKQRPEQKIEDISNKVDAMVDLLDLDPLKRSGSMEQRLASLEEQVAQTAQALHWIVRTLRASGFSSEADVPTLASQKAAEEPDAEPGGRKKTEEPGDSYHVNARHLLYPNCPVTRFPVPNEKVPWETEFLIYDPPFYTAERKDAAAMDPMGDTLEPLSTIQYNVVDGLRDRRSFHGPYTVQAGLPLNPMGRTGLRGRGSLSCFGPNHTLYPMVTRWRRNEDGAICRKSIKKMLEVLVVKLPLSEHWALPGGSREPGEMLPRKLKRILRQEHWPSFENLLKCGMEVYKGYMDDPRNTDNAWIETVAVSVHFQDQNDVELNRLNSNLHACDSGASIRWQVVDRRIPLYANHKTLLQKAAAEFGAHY
As to the kind of experiment: whole-cell patch clamp, current inhibition. The format is cell-based.
Settings: not given
A general note: In patch-clamp work, channel activity is measured electrically.
The compound `CNc1ncnc2c1ncn2[C@@H]1O[C@H](COP(=O)(O)CP(=O)(O)OC[C@H]2OC(O)[C@H](O)[C@@H]2O)[C@@H](O)[C@H]1O` (stereo partly drawn) [10f] returned an IC50 above 100 µM.
Turning to `COC1O[C@H](COP(=O)(O)C(F)(F)P(=O)(O)OC[C@H]2O[C@@H](n3cnc4c(N)ncnc43)[C@@H]3OC(C)(C)O[C@@H]32)[C@H]2OC(C)(C)O[C@@H]12` (stereo partly drawn) [7h], the IC50 is above 100 µM.
In the case of `COC1O[C@H](COP(=O)(O)C(F)(F)P(=O)(O)OC[C@H]2O[C@@H](n3cnc4c(N)nc(I)nc43)[C@H](O)[C@@H]2O)[C@@H](O)[C@H]1O` (stereo partly drawn) [9b], the IC50 is above 100 µM.
Still for that read-out and setting: the figure for `COC1O[C@H](COP(=O)(O)CP(=O)(O)OC[C@H]2O[C@@H](n3cnc4c(N)ncnc43)[C@@H]3OC(C)(C)O[C@@H]32)[C@H]2OC(C)(C)O[C@@H]12` (stereo partly drawn) [7a, 1″‐O‐methyl‐2″,2′,3″,3′‐O‐isopropylidene‐5′‐methylenediphoribose adenosine] is above 100 µM.
On the same count and under the same terms, as for `COC1O[C@H](COP(=O)(O)CP(=O)(O)OC[C@H]2O[C@@H](n3cnc4c(N)nc(Cl)nc43)[C@@H]3OC(C)(C)O[C@@H]32)[C@H]2OC(C)(C)O[C@@H]12` (stereo partly drawn) [7b], the figure is above 100 µM; as for `COC1O[C@H](COP(=O)(O)CP(=O)(O)OC[C@H]2O[C@@H](n3cnc4c(N)ncnc43)[C@H](OC)[C@@H]2O)[C@H]2OC(C)(C)O[C@@H]12` (stereo partly drawn) [compound 13, 1″‐O‐methyl‐2″,3″‐O‐isopropylidene‐2′‐methoxy‐5′‐methylenediphoribose adenosine], above 100 µM; as for `COc1nc(N)c2ncn([C@@H]3O[C@H](COP(=O)(O)CP(=O)(O)OC[C@H]4OC(O)[C@H](O)[C@@H]4O)[C@@H](O)[C@H]3O)c2n1` (stereo partly drawn) [10d], above 100 µM.
`CNc1ncnc2c1ncn2[C@@H]1O[C@H](COP(=O)(O)CP(=O)(O)OC[C@H]2OC(OC)[C@@H]3OC(C)(C)O[C@H]23)[C@H]2OC(C)(C)O[C@H]21` (stereo partly drawn) [7f]: the half-maximal inhibitory concentration (IC50) was above 100 µM.
On to `COC1O[C@H](COP(=O)(O)C(F)(F)P(=O)(O)OC[C@H]2O[C@@H](n3cnc4c(N)nc(I)nc43)[C@H](O)[C@@H]2O)[C@H]2OC(C)(C)O[C@@H]12` (stereo partly drawn) [8e], for which the IC50 is above 100 µM.
Still for that read-out and setting: the figure for `COC1O[C@H](COP(=O)(O)C(F)(F)P(=O)(O)OC[C@H]2O[C@@H](n3cnc4c(N)nc(Br)nc43)[C@@H]3OC(C)(C)O[C@@H]32)[C@H]2OC(C)(C)O[C@@H]12` (stereo partly drawn) [7n, 1″‐O‐methyl‐2″,2′,3″,3′‐O‐isopropylidene‐5′‐difluoromethylenediphosphoribose‐2‐bromoadenosine] is above 100 µM; for `COc1nc(N)c2ncn([C@@H]3O[C@H](COP(=O)(O)C(F)(F)P(=O)(O)OC[C@H]4OC(O)[C@H](O)[C@@H]4O)[C@@H](O)[C@H]3O)c2n1` (stereo partly drawn) [10j] it is above 100 µM.
Still for that read-out and setting: the figure for `COC1O[C@H](COP(=O)(O)OP(=O)(O)OC[C@H]2O[C@@H](n3cnc4c(N)ncnc43)[C@@H]3OC(C)(C)O[C@@H]32)[C@H]2OC(C)(C)O[C@@H]12` (stereo partly drawn) [7l] is above 100 µM; for `Nc1nc(I)nc2c1ncn2[C@@H]1O[C@H](COP(=O)(O)C(F)(F)P(=O)(O)OC[C@H]2OC(O)[C@H](O)[C@@H]2O)[C@@H](O)[C@H]1O` (stereo partly drawn) [10o] it is above 100 µM.
Still for that read-out and setting: the figure for `CO[C@@H]1[C@H](O)[C@@H](COP(=O)(O)CP(=O)(O)OC[C@H]2OC(O)[C@H](O)[C@@H]2O)O[C@H]1n1cnc2c(N)ncnc21` (stereo partly drawn) [compound 14, 2′‐methoxy‐5′‐methylenediphoribose adenosine] is above 100 µM; for `COC1O[C@H](COP(=O)(O)CP(=O)(O)OC[C@H]2O[C@@H](n3cnc4c(N)ncnc43)[C@H](O)[C@@H]2O)[C@H]2OC(C)(C)O[C@@H]12` (stereo partly drawn) [8a, 1″‐O‐methyl‐2″,3″‐O‐isopropylidene‐5′‐methylenediphosphoribose adenosine] it is 5.4 µM.
For the compound `Nc1ncnc2c1ncn2[C@@H]1O[C@H](COP(=O)(O)C(F)(F)P(=O)(O)OC[C@H]2OC(O)[C@H](O)[C@@H]2O)[C@@H](O)[C@H]1O` (stereo partly drawn) [10h], the IC50 is above 100 µM.
On the same count and under the same terms, the figure for `COC1O[C@H](COP(=O)(O)CP(=O)(O)OC[C@H]2O[C@@H](n3cnc4c(N)nc(I)nc43)[C@@H]3OC(C)(C)O[C@@H]32)[C@H]2OC(C)(C)O[C@@H]12` (stereo partly drawn) [7m] is above 100 µM; for `COC1O[C@H](COP(=O)(O)CP(=O)(O)OC[C@H]2O[C@@H](n3cnc4c(N)nc(Br)nc43)[C@@H]3OC(C)(C)O[C@@H]32)[C@H]2OC(C)(C)O[C@@H]12` (stereo partly drawn) [7c] it is above 100 µM.
`Nc1nc(N)c2ncn([C@@H]3O[C@H](COP(=O)(O)CP(=O)(O)OC[C@H]4OC(O)[C@H](O)[C@@H]4O)[C@@H](O)[C@H]3O)c2n1` (stereo partly drawn) [10e] had an IC50 above 100 µM.
In turn, `COC1O[C@H](COP(=O)(O)CP(=O)(O)OC[C@H]2O[C@@H](n3cnc4c(N)nc(N)nc43)[C@@H]3OC(C)(C)O[C@@H]32)[C@H]2OC(C)(C)O[C@@H]12` (stereo partly drawn) [7e] came in with a 50% inhibitory concentration (IC50) above 100 µM.
Compound `Nc1nc(I)nc2c1ncn2[C@@H]1O[C@H](COP(=O)(O)CP(=O)(O)OC[C@H]2OC(O)[C@H](O)[C@@H]2O)[C@@H](O)[C@H]1O` (stereo partly drawn) [10m] gave an IC50 above 100 µM.
Same read-out and setting: the figure for `Nc1nc(Br)nc2c1ncn2[C@@H]1O[C@H](COP(=O)(O)CP(=O)(O)OC[C@H]2OC(O)[C@H](O)[C@@H]2O)[C@@H](O)[C@H]1O` (stereo partly drawn) [10c] is above 100 µM.
Still for that read-out and setting: the figure for `Nc1nc(Cl)nc2c1ncn2[C@@H]1O[C@H](COP(=O)(O)CP(=O)(O)OC[C@H]2OC(O)[C@H](O)[C@@H]2O)[C@@H](O)[C@H]1O` (stereo partly drawn) [10b] is above 100 µM; for `COC1O[C@H](COP(=O)(O)CP(=O)(O)OC[C@H]2O[C@@H](n3cnc4c(N)nc(Cl)nc43)[C@H](O)[C@@H]2O)[C@H]2OC(C)(C)O[C@@H]12` (stereo partly drawn) [8b] it is above 100 µM.
For the compound `COC1O[C@H](COP(=O)(O)C(F)(F)P(=O)(O)OC[C@H]2O[C@@H](n3cnc4c(N)nc(I)nc43)[C@@H]3OC(C)(C)O[C@@H]32)[C@H]2OC(C)(C)O[C@@H]12` (stereo partly drawn) [7o], the IC50 was above 100 µM.
Same read-out and setting: the figure for `COC1O[C@H](COP(=O)(O)C(F)(F)P(=O)(O)OC[C@H]2O[C@@H](n3cnc4c(N)nc(Br)nc43)[C@H](O)[C@@H]2O)[C@@H](O)[C@H]1O` (stereo partly drawn) [9a, 1″‐O‐methyl‐difluoromethylenediphosphoribose‐2‐bromoadenosine] is above 100 µM.
Same read-out and setting: the figure for `COC1O[C@H](COP(=O)(O)C(F)(F)P(=O)(O)OC[C@H]2O[C@@H](n3cnc4c(N)nc(Cl)nc43)[C@@H]3OC(C)(C)O[C@@H]32)[C@H]2OC(C)(C)O[C@@H]12` (stereo partly drawn) [7i] is 5.7 µM; for `COC1O[C@H](COP(=O)(O)CP(=O)(O)OC[C@H]2O[C@@H](n3cnc4c(N(C)C)ncnc43)[C@@H]3OC(C)(C)O[C@@H]32)[C@H]2OC(C)(C)O[C@@H]12` (stereo partly drawn) [7g] it is above 100 µM.
In turn, `COC1O[C@H](COP(=O)(O)C(F)(F)P(=O)(O)OC[C@H]2O[C@@H](n3cnc4c(N)nc(Br)nc43)[C@H](O)[C@@H]2O)[C@H]2OC(C)(C)O[C@@H]12` (stereo partly drawn) [8d, 1″‐O‐methyl‐2″,3″‐O‐isopropylidene‐5′‐difluoromethylenediphosphoribose‐2‐bromoadenosine] registered a 50% inhibitory concentration (IC50) above 100 µM.
Take `COC1O[C@H](COP(=O)(O)C(F)(F)P(=O)(O)OC[C@H]2O[C@@H](n3cnc4c(N)nc(N)nc43)[C@@H]3OC(C)(C)O[C@@H]32)[C@H]2OC(C)(C)O[C@@H]12` (stereo partly drawn) [7k]: the IC50 was above 100 µM.
The compound `CN(C)c1ncnc2c1ncn2[C@@H]1O[C@H](COP(=O)(O)CP(=O)(O)OC[C@H]2OC(O)[C@H](O)[C@@H]2O)[C@@H](O)[C@H]1O` (stereo partly drawn) [10g] gave an IC50 above 100 µM.
On the same count and under the same terms, as for `COc1nc(N)c2ncn([C@@H]3O[C@H](COP(=O)(O)CP(=O)(O)OC[C@H]4OC(OC)[C@@H]5OC(C)(C)O[C@H]45)[C@H]4OC(C)(C)O[C@H]43)c2n1` (stereo partly drawn) [7d], the figure is above 100 µM; as for `COC1O[C@H](COP(=O)(O)C(F)(F)P(=O)(O)OC[C@H]2O[C@@H](n3cnc4c(N)nc(Cl)nc43)[C@H](O)[C@@H]2O)[C@H]2OC(C)(C)O[C@@H]12` (stereo partly drawn) [8c], above 100 µM.
The compound `Nc1nc(Cl)nc2c1ncn2[C@@H]1O[C@H](COP(=O)(O)C(F)(F)P(=O)(O)OC[C@H]2OC(O)[C@H](O)[C@@H]2O)[C@@H](O)[C@H]1O` (stereo partly drawn) [10i] registered an IC50 above 100 µM.
Still for that read-out and setting: the figure for `Nc1nc(N)c2ncn([C@@H]3O[C@H](COP(=O)(O)C(F)(F)P(=O)(O)OC[C@H]4OC(O)[C@H](O)[C@@H]4O)[C@@H](O)[C@H]3O)c2n1` (stereo partly drawn) [10k] is above 100 µM; for `COc1nc(N)c2ncn([C@@H]3O[C@H](COP(=O)(O)C(F)(F)P(=O)(O)OC[C@H]4OC(OC)[C@@H]5OC(C)(C)O[C@H]45)[C@H]4OC(C)(C)O[C@H]43)c2n1` (stereo partly drawn) [7j] it is above 100 µM.

Staying with this test, now noted: compound in intracellular (pipette) solution with 0.1 mM ADPR as activator; room temperature; pH 7.3 inside, 7.4 outside.
With `Nc1ncnc2c1ncn2[C@@H]1O[C@H](COP(=O)(O)CP(=O)(O)OC[C@H]2OC(O)[C@H](O)[C@@H]2O)[C@@H](O)[C@H]1O` (stereo partly drawn) [10a, methylenediphosphoribose adenosine], the IC50 is above 100 µM.
Still for that read-out and setting: the figure for `Nc1nc(Br)nc2c1ncn2[C@@H]1O[C@H](COP(=O)(O)C(F)(F)P(=O)(O)OC[C@H]2OC(O)[C@H](O)[C@@H]2O)[C@@H](O)[C@H]1O` (stereo partly drawn) [10n, difluoromethylenediphosphoribose‐2‐bromoadenosine] is above 100 µM.

The test is the same for the next values; noted with them: compound in intracellular solution with 0.1 mM ADPR; drawn structure is ADPR itself, the channel activator.
Consider `Nc1ncnc2c1ncn2[C@@H]1O[C@H](COP(=O)(O)OP(=O)(O)OC[C@H]2OC(O)[C@H](O)[C@@H]2O)[C@@H](O)[C@H]1O` (stereo partly drawn) [10l], for which the IC50 is above 100 µM.

Usually IC50 stands for the concentration that gives 50% inhibition. A higher IC50 goes with weaker potency.
